Data taken from PMC7901646, “Pyrrolo[2′,3′:3,4]cyclohepta[1,2-d][1,2]oxazoles, a New Class of Antimitotic Agents Active against Multiple Malignant Cell Types” (Journal of Medicinal Chemistry, 2020).

Experiments:
Format in all cases: cell-based
NCI-H522 = assay: NCI-60 screen; details: Homo sapiens, Non-Small-Cell Lung Cancer
Description: (§1) on the full NCI-60 panel comprising cancer cell lines derived from nine human cancer cell types (leukemia, non-small-cell lung, colon, central nervous system, melanoma, ovarian, renal, prostate, and breast).[50]

LOX IMVI = assay: NCI-60 screen; details: Homo sapiens, Melanoma
Description: as §1

KM12 = assay: NCI-60 screen; details: Homo sapiens, Colon Cancer
Description: as §1

OVCAR-3 = assay: NCI-60 screen; details: Homo sapiens, Ovarian Cancer
Description: as §1

[1] = test system: NCI-60 panel of human cancer cell lines; assay: NCI in vitro human tumor cell line screening, full panel; details: full NCI panel; for GI50: Homo sapiens, five concentrations 10^–4–10^–8 M, read-out: GI50 (concentration that inhibits 50% net cell growth), range over panel; for MG_MID (mean graph midpoint): arithmetic mean for all tested cancer cell lines
Description: as §1

ACHN = assay: NCI-60 screen; details: Homo sapiens, Renal Cancer
Experimental: as §1, with “All the synthesized compounds 51–76 were tested at a 10^–5 M concentration for their antitumor activity on the” for “on the”

SK-MEL-5 = assay: NCI-60 screen; details: Homo sapiens, Melanoma
Experimental: as §1, with “All the synthesized compounds 51–76 were tested at a 10^–5 M concentration for their antitumor activity on the” for “on the”

A498 = assay: NCI-60 screen; details: Homo sapiens, Renal Cancer
Experimental: as §1, with “All the synthesized compounds 51–76 were tested at a 10^–5 M concentration for their antitumor activity on the” for “on the”

SF-268 = assay: NCI-60 screen; details: Homo sapiens, CNS Cancer
Experimental: as §1, with “All the synthesized compounds 51–76 were tested at a 10^–5 M concentration for their antitumor activity on the” for “on the”

COLO 205 = assay: NCI-60 screen; details: Homo sapiens, Colon Cancer
Experimental: as §1, with “All the synthesized compounds 51–76 were tested at a 10^–5 M concentration for their antitumor activity on the” for “on the”

NCI/ADR-RES = assay: NCI-60 screen; details: Homo sapiens, Ovarian Cancer
Experimental: as §1, with “All the synthesized compounds 51–76 were tested at a 10^–5 M concentration for their antitumor activity on the” for “on the”

SNB-19 = assay: NCI-60 screen; details: Homo sapiens, CNS Cancer
Experimental: as §1, with “All the synthesized compounds 51–76 were tested at a 10^–5 M concentration for their antitumor activity on the” for “on the”

M14 = assay: NCI-60 screen; details: Homo sapiens, Melanoma
Experimental: as §1, with “All the synthesized compounds 51–76 were tested at a 10^–5 M concentration for their antitumor activity on the” for “on the”

MOLT-4 = assay: NCI-60 screen; details: Homo sapiens, Leukemia
Experimental: as §1, with “All the synthesized compounds 51–76 were tested at a 10^–5 M concentration for their antitumor activity on the” for “on the”

SR = assay: NCI-60 screen; details: Homo sapiens, Leukemia
Experimental: as §1, with “All the synthesized compounds 51–76 were tested at a 10^–5 M concentration for their antitumor activity on the” for “on the”

NCI-H460 = assay: NCI-60 screen; details: Homo sapiens, Non-Small-Cell Lung Cancer
Experimental: as §1, with “All the synthesized compounds 51–76 were tested at a 10^–5 M concentration for their antitumor activity on the” for “on the”

CCRF-CEM = assay: NCI-60 screen; details: Homo sapiens, Leukemia
Experimental: as §1, with “All the synthesized compounds 51–76 were tested at a 10^–5 M concentration for their antitumor activity on the” for “on the”

PC-3 = assay: NCI-60 screen; details: Homo sapiens, Prostate Cancer
Experimental: as §1, with “All the synthesized compounds 51–76 were tested at a 10^–5 M concentration for their antitumor activity on the” for “on the”

HCT-116 = assay: NCI-60 screen; details: Homo sapiens, Colon Cancer
Experimental: as §1, with “All the synthesized compounds 51–76 were tested at a 10^–5 M concentration for their antitumor activity on the” for “on the”

UACC-62 = assay: NCI-60 screen; details: Homo sapiens, Melanoma
Experimental: as §1, with “All the synthesized compounds 51–76 were tested at a 10^–5 M concentration for their antitumor activity on the” for “on the”

NCI-H226 = assay: NCI-60 screen; details: Homo sapiens, Non-Small-Cell Lung Cancer
Experimental: as §1, with “All the synthesized compounds 51–76 were tested at a 10^–5 M concentration for their antitumor activity on the” for “on the”

MDA-MB-231/ATCC = assay: NCI-60 screen; details: Homo sapiens, Breast Cancer
Experimental: as §1, with “All the synthesized compounds 51–76 were tested at a 10^–5 M concentration for their antitumor activity on the” for “on the”

K-562 = assay: NCI-60 screen; details: Homo sapiens, K562; Leukemia
Experimental: as §1, with “All the synthesized compounds 51–76 were tested at a 10^–5 M concentration for their antitumor activity on the” for “on the”

MDA-MB-435 = assay: NCI-60 screen; details: Homo sapiens, Melanoma
Experimental: as §1, with “All the synthesized compounds 51–76 were tested at a 10^–5 M concentration for their antitumor activity on the” for “on the”

DU-145 = assay: NCI-60 screen; details: Homo sapiens, Prostate Cancer
Experimental: as §1, with “All the synthesized compounds 51–76 were tested at a 10^–5 M concentration for their antitumor activity on the” for “on the”

MCF7 = assay: NCI-60 screen; details: Homo sapiens, Breast Cancer
Experimental: as §1, with “All the synthesized compounds 51–76 were tested at a 10^–5 M concentration for their antitumor activity on the” for “on the”

MINO (MCL) = assay: MTT cell proliferation, lymphoma; details: Homo sapiens, 72 h; for activity at 1 µM: of untreated cells, read-out: Proliferating cells (%); for IC50: MTT
Procedure, shortened: (§2)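 Lymphoma lines in RPMI-1640 with 10% FBS seeded at 1 × 10^5 cells/mL and treated with 1 μM, or in triplicate with serial dilutions over 40–10 000 nM, for 72 h at 37 °C, 5% CO2. Viability by MTT (4 h), SDS lysis, absorbance at 570 nm with medium-only blanks.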

HBL1 (ABC DLBCL) = assay: MTT cell proliferation, lymphoma; details: Homo sapiens, 72 h; for activity at 1 µM: of untreated cells, read-out: Proliferating cells (%); for IC50: MTT
Procedure, shortened: as §2

VL51 (MZL) = assay: MTT cell proliferation, lymphoma; details: Homo sapiens, 72 h; for activity at 1 µM: of untreated cells, read-out: Proliferating cells (%); for IC50: MTT
Procedure, shortened: as §2

[2] = test system: VL51 idelalisib-resistant; assay: MTT cell proliferation, lymphoma; details: Homo sapiens, 72 h, of untreated cells, read-out: Proliferating cells (%)
Procedure, shortened: as §2

VL51 ibrutinib-resistant = assay: MTT cell proliferation, lymphoma; details: Homo sapiens, 72 h, of untreated cells, read-out: Proliferating cells (%)
Procedure, shortened: as §2

SU-DHL-10 (GCB DLBCL) = assay: MTT cell proliferation, lymphoma; details: Homo sapiens, SU-DHL10, 72 h; for activity at 1 µM: of untreated cells, read-out: Proliferating cells (%); for IC50: MTT
Procedure, shortened: as §2

## CCOC(=O)c1c(Cl)c2c(n1Cc1ccccc1)-c1oncc1CCC2 [Compound 70, Ethyl 7-Chloro-9-benzyl-4,5,6,9-tetrahydropyrrolo[2′,3′:3,4]cyclohepta[1,2-d][1,2]oxazole-8-carboxylate]
NCI-H522
  GI50: 1290 nM
LOX IMVI
  GI50: 5260 nM
KM12
  GI50: 3700 nM
OVCAR-3
  GI50: 3130 nM
[1]
  GI50: 1290 to 5890 nM
  MG_MID (mean graph midpoint): 7.08 µM
ACHN
  GI50: 5890 nM
SK-MEL-5
  GI50: 3530 nM
A498
  GI50: 4380 nM
SF-268
  GI50: > 100000 nM
COLO 205
  GI50: 3530 nM
NCI/ADR-RES
  GI50: 2830 nM
SNB-19
  GI50: > 100000 nM
M14
  GI50: 3780 nM
MOLT-4
  GI50: 3580 nM
SR
  GI50: 1800 nM
NCI-H460
  GI50: 3620 nM
CCRF-CEM
  GI50: 2210 nM
PC-3
  GI50: 3160 nM
HCT-116
  GI50: 4020 nM
UACC-62
  GI50: 4010 nM
NCI-H226
  GI50: > 100000 nM
MDA-MB-231/ATCC
  GI50: 3510 nM
K-562
  GI50: 3680 nM
MDA-MB-435
  GI50: 1400 nM
DU-145
  GI50: > 100000 nM
MCF7
  GI50: 3210 nM
MINO (MCL)
  activity at 1 µM: 104%
  IC50: > 10000 nM
HBL1 (ABC DLBCL)
  activity at 1 µM: 104%
  IC50: > 10000 nM
VL51 (MZL)
  activity at 1 µM: 108%
  IC50: > 10000 nM
[2]
  activity at 1 µM: 111%
VL51 ibrutinib-resistant
  activity at 1 µM: 104%
SU-DHL-10 (GCB DLBCL)
  activity at 1 µM: 69.5%
  IC50: 9000 nM

## CCOC(=O)c1c(Cl)c2c(n1Cc1cc(OC)cc(OC)c1)-c1oncc1CCC2 [Compound 75, Ethyl 7-Chloro-9-(3,5-dimethoxybenzyl)-4,5,6,9-tetrahydropyrrolo[2′,3′:3,4]cyclohepta[1,2-d][1,2]oxazole-8-carboxylate]
NCI-H522
  GI50: 30 nM
LOX IMVI
  GI50: 880 nM
KM12
  GI50: 320 nM
OVCAR-3
  GI50: 190 nM
[1]
  GI50: 30 to 27000 nM
  MG_MID (mean graph midpoint): 0.41 µM
ACHN
  GI50: 940 nM
SK-MEL-5
  GI50: 490 nM
A498
  GI50: 170 nM
SF-268
  GI50: 1910 nM
COLO 205
  GI50: 170 nM
NCI/ADR-RES
  GI50: 200 nM
SNB-19
  GI50: 520 nM
M14
  GI50: 260 nM
MOLT-4
  GI50: 580 nM
SR
  GI50: 70 nM
NCI-H460
  GI50: 350 nM
CCRF-CEM
  GI50: 250 nM
PC-3
  GI50: 290 nM
HCT-116
  GI50: 430 nM
UACC-62
  GI50: 110 nM
NCI-H226
  GI50: 9710 nM
MDA-MB-231/ATCC
  GI50: 840 nM
K-562
  GI50: 290 nM
MDA-MB-435
  GI50: 30 nM
DU-145
  GI50: 350 nM
MCF7
  GI50: 100 nM
MINO (MCL)
  activity at 1 µM: 9.5%
  IC50: 900 nM
HBL1 (ABC DLBCL)
  activity at 1 µM: 20.7%
  IC50: 900 nM
VL51 (MZL)
  activity at 1 µM: 38.1%
  IC50: 800 nM
[2]
  activity at 1 µM: 40.2%
VL51 ibrutinib-resistant
  activity at 1 µM: 40.8%
SU-DHL-10 (GCB DLBCL)
  activity at 1 µM: 11.5%
  IC50: 900 nM
